Measured values from patent US20060063759A1, “Tricyclic steroid hormone nuclear receptor modulators” (priority 2002, published 2006).
pKi: −log10 of the molar value.

What was measured:
human MR = target: T1, human MR (Homo sapiens, UniProt P08235); test: Mineralocorticoid Receptor Binding Assay ([3H]-aldosterone); settings: [3H]-aldosterone binding, human MR expressed in Sf9 cells; read-out: MR Ki
T1 construct: The full length human MR gene is cloned from a human kidney or human brain cDNA library; His tag from the pAcHLT vector (own knowledge); made in house; host or cells: Sf9 insect cells (baculovirus, pAcHLT transfer vector)
T1 sequence (P08235 1-984): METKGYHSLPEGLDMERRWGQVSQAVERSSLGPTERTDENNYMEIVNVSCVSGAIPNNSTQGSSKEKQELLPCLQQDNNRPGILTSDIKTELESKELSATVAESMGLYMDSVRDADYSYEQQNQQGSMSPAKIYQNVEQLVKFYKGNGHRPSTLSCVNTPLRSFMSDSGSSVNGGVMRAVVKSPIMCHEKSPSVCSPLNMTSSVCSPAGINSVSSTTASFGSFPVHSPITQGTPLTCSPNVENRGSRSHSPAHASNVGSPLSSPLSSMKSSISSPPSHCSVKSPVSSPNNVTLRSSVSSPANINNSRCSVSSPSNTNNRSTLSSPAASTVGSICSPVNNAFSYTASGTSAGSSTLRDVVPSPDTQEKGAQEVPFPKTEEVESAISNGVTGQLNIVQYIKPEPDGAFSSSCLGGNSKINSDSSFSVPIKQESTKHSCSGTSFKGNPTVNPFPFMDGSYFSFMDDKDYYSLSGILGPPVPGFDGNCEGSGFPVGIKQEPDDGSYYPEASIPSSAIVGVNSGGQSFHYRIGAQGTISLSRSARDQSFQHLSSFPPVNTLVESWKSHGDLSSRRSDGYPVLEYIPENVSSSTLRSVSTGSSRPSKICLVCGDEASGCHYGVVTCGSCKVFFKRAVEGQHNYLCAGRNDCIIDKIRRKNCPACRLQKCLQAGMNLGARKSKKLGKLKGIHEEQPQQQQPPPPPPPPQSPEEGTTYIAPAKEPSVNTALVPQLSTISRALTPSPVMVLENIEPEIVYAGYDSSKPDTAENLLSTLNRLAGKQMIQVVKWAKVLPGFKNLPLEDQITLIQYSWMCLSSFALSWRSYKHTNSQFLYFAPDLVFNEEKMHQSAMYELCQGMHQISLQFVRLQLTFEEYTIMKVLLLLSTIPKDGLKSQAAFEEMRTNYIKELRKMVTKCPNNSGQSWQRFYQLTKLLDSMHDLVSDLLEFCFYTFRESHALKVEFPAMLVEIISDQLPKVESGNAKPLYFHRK
Method in brief: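 Lysate supernatant of Sf9 cells expressing full-length human MR (20-25 μg protein) was incubated with 0.5 nM [3H]-aldosterone and test compound in molybdate/Tris/phosphate/glycerol buffer, pH 7.5, ~16 h at 4 °C. Bound ligand was filtered and counted by scintillation; IC50 is the concentration halving [3H]-aldosterone binding.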

glucocorticoid receptor = target: T2, glucocorticoid receptor (Homo sapiens, UniProt P04150); test: Glucocorticoid Receptor Binding Assay ([3H]-dexamethasone, A549 cell extract); settings: [3H]-dexamethasone binding, read-out: GR Ki
T2 construct: containing 50-200 ug of A549 cell extract and 1.86 nM [^3H]-dexamethasone; host or cells: A549 human lung epithelial cells (sonicated cell extract)
T2 sequence (P04150 1-777): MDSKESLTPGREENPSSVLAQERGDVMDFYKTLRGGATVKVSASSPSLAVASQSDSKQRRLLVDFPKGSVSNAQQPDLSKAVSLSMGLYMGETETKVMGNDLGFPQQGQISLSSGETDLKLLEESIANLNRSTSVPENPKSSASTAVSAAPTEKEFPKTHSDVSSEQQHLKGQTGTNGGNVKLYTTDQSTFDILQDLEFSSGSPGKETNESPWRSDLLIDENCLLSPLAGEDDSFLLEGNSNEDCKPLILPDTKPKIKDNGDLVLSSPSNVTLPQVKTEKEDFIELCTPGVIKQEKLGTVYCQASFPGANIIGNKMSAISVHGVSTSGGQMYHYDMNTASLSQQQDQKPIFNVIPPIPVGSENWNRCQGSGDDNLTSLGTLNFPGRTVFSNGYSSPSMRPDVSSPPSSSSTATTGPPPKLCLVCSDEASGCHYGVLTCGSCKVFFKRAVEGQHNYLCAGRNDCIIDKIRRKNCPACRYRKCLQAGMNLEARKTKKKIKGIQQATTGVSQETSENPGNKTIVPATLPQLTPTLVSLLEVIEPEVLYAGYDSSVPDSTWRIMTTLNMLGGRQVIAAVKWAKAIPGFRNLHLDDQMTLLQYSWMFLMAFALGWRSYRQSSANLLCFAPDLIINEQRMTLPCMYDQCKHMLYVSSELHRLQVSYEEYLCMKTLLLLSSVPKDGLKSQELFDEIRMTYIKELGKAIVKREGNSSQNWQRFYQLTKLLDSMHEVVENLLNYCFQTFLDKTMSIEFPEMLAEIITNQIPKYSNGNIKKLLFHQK
Method in brief: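 A549 cell extract (50–200 ug) incubated with 1.86 nM [3H]-dexamethasone and test compound for 16 h at 4 °C in Tris-HCl pH 7.2 buffer with glycerol and molybdate. Unbound radioligand removed by dextran-coated charcoal, then supernatant bound counts measured by scintillation.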

SMILES | pKi (human MR) | pKi (glucocorticoid receptor)
Cc1ccc2c(c1)CCc1ccccc1/C2=C/c1cccc(NS(C)(=O)=O)c1 [Example 326] | > 6.30 | > 6.30
Cc1ccc2c(c1)CCc1ccccc1/C2=C\c1cccc(NS(C)(=O)=O)c1 [Example 327] | > 6.30 | > 6.30
CS(=O)(=O)Nc1cccc(C=C2c3ccccc3CCc3cc(OCCc4ccccc4)ccc32)c1 [Example 330] | > 6.30 | > 6.30
COc1ccc2c(c1)CCc1cc(OC)ccc1C2=Cc1ccc(OCCN2CCCCC2)cc1 [Example 333] | > 6.30 | > 6.30
Oc1cccc(/C=C2/c3ccccc3CCc3cc(C(F)F)ccc32)c1 [Example 334] | > 6.30 | > 6.30
Oc1cccc(/C=C2\c3ccccc3CCc3cc(C(F)F)ccc32)c1 [Example 335] | > 6.30 | > 6.30
N#Cc1ccc(C=C2c3ccccc3CCc3cc(F)ccc32)cc1F [Example 336] | > 6.30 | > 5.00
CS(=O)(=O)Nc1ccc2c(c1)CCc1ccccc1/C2=C\c1cccc(O)c1 [Example 338] | > 6.30 | > 6.00
CS(=O)(=O)Nc1cccc(/C=C2\c3ccccc3CCc3cc(NS(C)(=O)=O)ccc32)c1 [Example 339] | > 6.30 | > 6.30
N#Cc1ccc2c(c1)CCc1ccccc1/C2=C/c1cccc(O)c1 [Example 340] | > 6.30 | > 6.30
N#Cc1ccc2c(c1)CCc1ccccc1/C2=C\c1cccc(O)c1 [Example 341] | > 6.30 | > 6.30
CS(=O)(=O)Nc1cccc(/C=C2/c3ccccc3CCc3cc(C#N)ccc32)c1 [Example 342] | > 6.30 | > 6.30
CS(=O)(=O)Nc1cccc(/C=C2\c3ccccc3CCc3cc(-c4nn[nH]n4)ccc32)c1 [Example 343] | > 6.00 | > 6.30
CS(=O)(=O)Nc1cccc(C=C2c3ccccc3CCc3cc(F)cc(F)c32)c1 [Example 344] | > 6.30 | > 6.30
CS(=O)(=O)NCc1ccc(/C=C2/c3ccccc3CCc3cc(Cl)ccc32)cc1 [Example 345] | > 6.30 | > 5.00
CS(=O)(=O)NCc1ccc(/C=C2\c3ccccc3CCc3cc(Cl)ccc32)cc1 [Example 346] | > 6.30 | > 5.00
COc1ccc2c(c1)/C(=C/c1cccc(NS(C)(=O)=O)c1)c1ccccc1CC2 [Example 347] | > 6.30 | > 6.30
COc1ccc2c(c1)/C(=C\c1cccc(NS(C)(=O)=O)c1)c1ccccc1CC2 [Example 348] | > 6.30 | > 6.30
COc1ccc2c(c1)[C@@H](Cc1cccc(NS(C)(=O)=O)c1)c1ccccc1CC2 [Example 349] | > 6.30 | > 6.30
CS(=O)(=O)Nc1cccc(/C=C2/c3ccccc3CCc3ccc(O)cc32)c1 [Example 350] | > 6.30 | > 6.30
COc1ccc2c(c1)CCc1ccccc1[C@@H]2Cc1cccc(NS(C)(=O)=O)c1 [Example 351] | > 6.30 | > 6.30
CS(=O)(=O)Nc1cccc(/C=C2\c3ccccc3CCc3ccc(O)cc32)c1 [Example 352] | > 6.30 | > 6.30
COc1cccc2c1C(=Cc1cccc(NS(C)(=O)=O)c1)c1ccccc1CC2 [Example 353] | > 6.30 | > 6.30
CS(=O)(=O)Nc1cccc(/C=C2\c3ccccc3CCc3cc(F)ccc32)c1 [Example 355] | > 6.30 | > 6.30
CS(=O)(=O)Nc1cccc(C=C2c3ccc(F)cc3CCc3cc(F)ccc32)c1 [Example 360] | > 6.30 | > 6.00
N#Cc1cccc2c1CCc1ccccc1/C2=C/c1cccc(O)c1 [Example 363] | > 6.30 | > 6.30
N#Cc1cccc2c1CCc1ccccc1/C2=C\c1cccc(O)c1 [Example 364] | > 6.30 | > 6.30
CS(=O)(=O)Nc1cccc(/C=C2\c3ccccc3CCc3cccc(Cl)c32)c1 [Example 365] | > 6.30 | > 6.30
